# Where two headings read alike, the source gives them in different places.
# Key:
# [1] = tested on: muscle glucose oxidation; details: co-ingestion of caffeine and glucose during exercise; cited from earlier work
# [2] = Plasma glucose and insulin concentrations during 4 hr recovery after glycogen-depleting exercise; assay type: in vivo, human (trained cyclists)
# Procedure: (§1) Eight trained cyclists participated in a study which was approved by the Ethics Committee of RMIT University, Melbourne, Australia. Each subject participated in two experimental trials separated by 7 to 10 days. Trials were randomised and double-blind. Approximately 12 to 14 hours before each trial, the subjects reported to the laboratory to undertake 90 minutes of intense cycling (repeated sprints) to deplete muscle glycogen stores. The subjects were then fed a standardised low carbohydrate meal (60% of energy from fat) and had to refrain from solid feeding for the following 12 to 14 hours. During this period water was allowed ad libitum.
# (§2) The next morning, subjects reported to the laboratory between 0600 and 0700 hours. After a rest period of 10 minutes, an indwelling canula was inserted into the right forearm and a resting blood sample taken. Local anaesthesia was applied to the subjects skin to enable subcutaneous tissue and fascia of the vastus lateralis of the subjects right leg in preparation for muscle biopsies.
# (§3) After biopsy preparation, a bout of exhaustive exercise (submaximal continuous cycling) was undertaken to further deplete muscle glycogen stores. The exhaustive cycling protocol has been previously described by McInerney et al. (McInerney P., Lessard S. J., Burke L. M., Coffey V. G., Lo Giudice S. L., Southgate R. J., Hawley J. A. Failure to repeatedly supercompensate muscle glycogen stores in highly trained men. Med. Sci. Sports Excer. 37:404-411, 2005). During exercise the subjects were allowed to drink water ad libitum and were fan-cooled.
# (§4) Laboratory conditions were standardised for the tests with 50% relative humidity and a temperature of 20° C. Immediately on completion of the exercise and while subjects remained seated on the cycle ergometer, a muscle biopsy was taken and frozen within 15 seconds of the last muscle contraction. After the biopsy, subjects dismounted the ergometer and rested in a supine position. During one trial, subjects were fed 1 g/kg body mass (BM) of carbohydrate immediately upon cessation of exercise and thereafter 1 g/kg BM of carbohydrate after 60, 120 and 180 minutes of recovery (a total of 4 g/kg BM carbohydrate). In the second trial, subjects followed the same carbohydrate ingestion regimen but in addition consumed 4 mg/kg BM of caffeine immediately upon cessation of the exercise and then after 120 minutes during recovery. Blood samples were taken at regular intervals throughout the recovery period (0, 30, 60, 90, 120, 180 and 240 minutes). Muscle biopsies were taken immediately after exercise and after 1 and 4 hr of recovery. All muscle samples were stored at −80° C. until analysis.
# (§5) Blood samples were analysed for plasma glucose and insulin concentrations at rest, and at regular intervals during recovery. The protocols for blood analysis are routine and have been described previously ((McInerney P., Lessard S. J., Burke L. M., Coffey V. G., Lo Giudice S. L., Southgate R. J., Hawley J. A. Failure to repeatedly supercompensate muscle glycogen stores in highly trained men. Med. Sci. Sports Excer. 37:404-411, 2005). Plasma caffeine levels were analysed by high-performance liquid chromatography. Muscle samples were analysed for glycogen content immediately after exercise and after 1 and 4 hours of recovery.
# [3] = tested on: muscle glycogen; assay: Muscle glycogen content and resynthesis rate (vastus lateralis biopsies) after exhaustive exercise; assay type: in vivo, human (trained cyclists); details: for Muscle Glycogen Resynthesis Rate: caffeine with carbohydrate
# Procedure: as §1, §2, §3, §4, §5
# [4] = Plasma caffeine concentration by HPLC during recovery after exercise; assay type: in vivo, human (trained cyclists); details: for concentration at 1 h / concentration at 4 h: 4 mg/kg BM
# Procedure: as §1, §4, §5
# [5] = 0 hr, immediately post exercise
# [6] = 0.5 hr recovery, caffeine 4 mg/kg BM at 0 and 120 min with carbohydrate 1 g/kg BM hourly
# [7] = 1 hr recovery, caffeine 4 mg/kg BM at 0 and 120 min with carbohydrate 1 g/kg BM hourly
# [8] = 1.5 hr recovery, caffeine 4 mg/kg BM at 0 and 120 min with carbohydrate 1 g/kg BM hourly
# [9] = 2 hr recovery, caffeine 4 mg/kg BM at 0 and 120 min with carbohydrate 1 g/kg BM hourly
# [10] = 3 hr recovery, caffeine 4 mg/kg BM at 0 and 120 min with carbohydrate 1 g/kg BM hourly
# [11] = 4 hr recovery, caffeine 4 mg/kg BM at 0 and 120 min with carbohydrate 1 g/kg BM hourly
# [12] = rest, before exercise and ingestion
smiles,measurement,setting,value
"Cn1c(=O)c2c(ncn2C)n(C)c1=O [Caffeine, caffeine]",increase in muscle glucose oxidation,[1],26%
same,Plasma Glucose,[2]; [5],3.62 mmol/L
same,Plasma Insulin,[2]; [5],4.17 uU/mL
same,Plasma Glucose,[2]; [6],6.06 mmol/L
same,Plasma Insulin,[2]; [6],30.17 uU/mL
same,Plasma Glucose,[2]; [7],6.29 mmol/L
same,Plasma Insulin,[2]; [7],29.23 uU/mL
same,Plasma Glucose,[2]; [8],5.95 mmol/L
same,Plasma Insulin,[2]; [8],46.33 uU/mL
same,Plasma Glucose,[2]; [9],5.58 mmol/L
same,Plasma Insulin,[2]; [9],46.02 uU/mL
same,Plasma Glucose,[2]; [10],5.24 mmol/L
same,Plasma Insulin,[2]; [10],68.53 uU/mL
same,Plasma Glucose,[2]; [11],5.23 mmol/L
same,Plasma Insulin,[2]; [11],46.91 uU/mL
same,area under the insulin versus time curve compared to carbohydrate alone,"[2]; caffeine with carbohydrate, 4 hr recovery, P<0.05",significantly greater
same,Plasma Glucose,[2]; [12],4.04 mmol/L
same,Plasma Insulin,[2]; [12],9.36 uU/mL
same,Muscle Glycogen Resynthesis Rate,[3]; 0-1 hr of recovery,63.52 mm/Kg · hr · dm
same,Muscle Glycogen Content,[3]; [5],76 mmol/Kg · dm
same,Muscle Glycogen Content,[3]; [7],149 mmol/Kg · dm
same,Muscle Glycogen Resynthesis Rate,[3]; 1 hr-4 hr of recovery,57.69 mm/Kg · hr · dm
same,Muscle Glycogen Content,[3]; [11],313 mmol/Kg · dm
same,Muscle Glycogen Content,[3]; after 1 hr of recovery,149±18 mmol/kg d.w
same,increase of muscle glycogen content,"[3]; after 1 hr of recovery, vs exhaustion",~80%
same,muscle glycogen levels,"[3]; after 4 hr of recovery, co-ingestion of caffeine with CHO, P<0.001 vs placebo",313±26 mmol/kg d.w.
same,muscle glycogen levels at exhaustion,"[3]; at exhaustion, before ingestion",76 ± 9 mmol/kg
same,"rates of muscle glycogen synthesis, higher than PL (carbohydrate alone)",[3]; from 1-4 hr of recovery,66%
same,rates of muscle glycogen synthesis,"[3]; from 1-4 hr of recovery, P<0.05 vs PL",57.7 ± 7.6 mmol/kg/h
same,"average rate of resynthesis, higher than PL (carbohydrate alone)",[3]; over the 4 hours of recovery,66%
same,average rate of resynthesis,"[3]; over the 4 hours of recovery, P<0.05 vs PL",57.71 ± 7.6 mmol/kg/h
same,concentration at 0 h,"[4]; human, plasma, oral, 0 hr, immediately post exercise",0 nM
same,concentration at 1 h,"[4]; human, plasma, oral, 1 hr recovery, oral caffeine 4 mg/kg BM at 0 and 120 min with carbohydrate, read-out: Plasma caffeine concentration",31.5 µM
same,concentration at 4 h,"[4]; human, plasma, oral, 4 hr recovery, oral caffeine 4 mg/kg BM at 0 and 120 min with carbohydrate, read-out: Plasma caffeine concentration",77.9 µM
same,concentration at 1 h,"[4]; human, plasma, oral, after 1 hr, carbohydrate and caffeine, read-out: plasma caffeine levels",30 µM
same,concentration at 4 h,"[4]; human, plasma, oral, after 4 hr, carbohydrate and caffeine, read-out: plasma caffeine levels",~80 µM
same,Plasma caffeine concentration,[4]; [12],0.00 µM
